Measured values reported in PubChem BioAssay AID248 (DTP/NCI, 2004).
Toxic doses and inconclusive results are not listed. Rule as the data show it: active = T/C of 150% or more; inactive = T/C below 125%.

System: L1210 leukemia ip in BDF1 mice, survival T/C
Assay: NCI In Vivo Anticancer Drug Screen. Data for tumor model L1210 Leukemia (intraperitoneal) in B6D2F1 (BDF1) mice
Conditions: endpoint: mean survival time, higher = longer survival
Outline: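 Read-out is survival time, reported as the treated-group measurement over the vehicle-control measurement.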

[1] = dose: 100.0 mg/kg/injection, schedule: Q04DX003 (ip), vehicle: Klucel (hydroxypropylcellulose) (HPC)
[2] = dose: 200.0 mg/kg/injection, schedule: Q04DX003 (ip), vehicle: Klucel (hydroxypropylcellulose) (HPC)
[3] = dose: 400.0 mg/kg/injection, schedule: Q04DX003 (ip), vehicle: Klucel (hydroxypropylcellulose) (HPC)
[4] = dose: 100.0 mg/kg/injection, schedule: Q01DX001 (ip), vehicle: other
[5] = dose: 100.0 mg/kg/injection, schedule: Q04DX003 (ip), vehicle: saline with Tween-80
[6] = dose: 200.0 mg/kg/injection, schedule: Q01DX001 (ip), vehicle: other
[7] = dose: 200.0 mg/kg/injection, schedule: Q04DX003 (ip), vehicle: saline with Tween-80
[8] = dose: 400.0 mg/kg/injection, schedule: Q01DX001 (ip), vehicle: other
[9] = dose: 400.0 mg/kg/injection, schedule: Q04DX003 (ip), vehicle: saline with Tween-80
[10] = dose: 100.0 mg/kg/injection, schedule: Q01DX009 (ip), vehicle: Klucel (hydroxypropylcellulose) (HPC)
[11] = dose: 200.0 mg/kg/injection, schedule: Q01DX009 (ip), vehicle: Klucel (hydroxypropylcellulose) (HPC)
[12] = dose: 400.0 mg/kg/injection, schedule: Q01DX009 (ip), vehicle: Klucel (hydroxypropylcellulose) (HPC)
[13] = dose: 100.0 mg/kg/injection, schedule: Q04DX003 (ip), vehicle: other
[14] = dose: 200.0 mg/kg/injection, schedule: Q04DX003 (ip), vehicle: other
[15] = dose: 400.0 mg/kg/injection, schedule: Q04DX003 (ip), vehicle: other
[16] = dose: 50.0 mg/kg/injection, schedule: Q01DX001 (ip), vehicle: saline
[17] = dose: 100.0 mg/kg/injection, schedule: Q01DX001 (ip), vehicle: saline
[18] = dose: 200.0 mg/kg/injection, schedule: Q01DX001 (ip), vehicle: saline
[19] = dose: 400.0 mg/kg/injection, schedule: Q01DX001 (ip), vehicle: saline
[20] = dose: 100.0 mg/kg/injection, schedule: Q01DX001 (ip), vehicle: Klucel (hydroxypropylcellulose) (HPC)
[21] = dose: 200.0 mg/kg/injection, schedule: Q01DX001 (ip), vehicle: Klucel (hydroxypropylcellulose) (HPC)
[22] = dose: 50.0 mg/kg/injection, schedule: Q01DX009 (ip), vehicle: saline with Tween-80
[23] = dose: 50.0 mg/kg/injection, schedule: Q04DX003 (ip), vehicle: saline with Tween-80
[24] = dose: 100.0 mg/kg/injection, schedule: Q01DX009 (ip), vehicle: saline with Tween-80
[25] = dose: 200.0 mg/kg/injection, schedule: Q01DX009 (ip), vehicle: saline with Tween-80

Measured: T/C

CN(C)c1ccc(/C=C/c2ccc3ccccc3n2)c(F)c1
inactive: [1] 100 % of control | [2] 98 % of control | [3] 93 % of control

CCOC(=O)Nc1cc(Cl)c([N+](=O)[O-])c(N)n1
inactive: dose: 50.0 mg/kg/injection, schedule: Q01DX001 (ip), vehicle: other 106 % of control | [4] 101 % of control | [5] 92 % of control | [6] 109 % of control | [7] 116 % of control | [8] 104 % of control | [9] 104 % of control

CC(C)(C)NC(=O)Oc1ccc(-c2ccccc2)cc1
inactive: [10] 99 % of control | [11] 95 % of control | [12] 95 % of control

COc1ccc(C2(c3ccccc3)OC(=O)c3ccccc32)c2ccccc12 (stereo not drawn)
inactive: [4] 110 % of control | [13] 104 % of control | [6] 92 % of control | [14] 100 % of control | [8] 86 % of control | [15] 111 % of control

N=C(N)CCc1ccccc1
inactive: dose: 75.0 mg/kg/injection, schedule: Q04DX003 (ip), vehicle: saline 99 % of control | dose: 150.0 mg/kg/injection, schedule: Q04DX003 (ip), vehicle: saline 98 % of control

O=c1oc2cccc(O)c2c2c1CCCC2
inactive: [10] 95 % of control | [1] 97 % of control | [11] 90 % of control | [2] 95 % of control | [12] 90 % of control | [3] 93 % of control

CCOC(=O)NC(NC(=O)OCC)c1ccc(Cl)cc1Cl
inactive: dose: 100.0 mg/kg/injection, schedule: Q01DX001 (ip), vehicle: carboxymethylcellulose (CMC) 88 % of control | dose: 400.0 mg/kg/injection, schedule: Q01DX001 (ip), vehicle: carboxymethylcellulose (CMC) 88 % of control

CC(=O)c1ccccc1NC(=O)c1ccccc1F
inactive: [10] 98 % of control | [11] 113 % of control | [12] 95 % of control

O=[N+]([O-])c1ccc(Oc2ccc[n+]([O-])c2)c([N+](=O)[O-])c1
inactive: dose: 50.0 mg/kg/injection, schedule: Q01DX009 (ip), vehicle: Klucel (hydroxypropylcellulose) (HPC) 102 % of control | [10] 102 % of control | [5] 96 % of control

CCC(CC)(c1ccccc1)C(OC(N)=O)c1ccccc1 (stereo not drawn)
inactive: [16] 90 % of control | [17] 101 % of control | [18] 92 % of control | [19] 90 % of control

Cc1cc([N+](=O)[O-])cc(Br)c1N
inactive: [7] 93 % of control | [9] 91 % of control

O=C(NC(CS(=O)(=O)O)C(=O)O)OCc1ccccc1 (stereo not drawn)
inactive: [20] 93 % of control | [1] 93 % of control | [21] 97 % of control | [2] 95 % of control | dose: 400.0 mg/kg/injection, schedule: Q01DX001 (ip), vehicle: Klucel (hydroxypropylcellulose) (HPC) 91 % of control

COc1c(C(C)(C)C)cc([N+](=O)[O-])c(C)c1[N+](=O)[O-]
inactive: [10] 98 % of control | [1] 103 % of control | [11] 103 % of control | [2] 102 % of control | [12] 96 % of control | [3] 94 % of control

O=[N+]([O-])c1ccc(Cl)cc1/C=N/NC(=S)Nc1cccc2cccnc12
inactive: [17] 100 % of control | [18] 103 % of control | [19] 100 % of control

CCNc1nc(N)nc2n[nH]nc12
inactive: [22] 95 % of control | [23] 98 % of control | dose: 100.0 mg/kg/injection, schedule: Q01DX001 (ip), vehicle: saline with Tween-80 101 % of control | [24] 89 % of control | [5] 101 % of control | dose: 200.0 mg/kg/injection, schedule: Q01DX001 (ip), vehicle: saline with Tween-80 94 % of control | [25] 89 % of control | [7] 98 % of control

Clc1nc2nc(C3CC3)[nH]c2nc1Cl
inactive: [24] 104 % of control | [5] 97 % of control | [25] 90 % of control | [7] 95 % of control | dose: 400.0 mg/kg/injection, schedule: Q01DX009 (ip), vehicle: saline with Tween-80 111 % of control | [9] 101 % of control

Cc1ccc(C(=O)O)cc1S(=O)(=O)Cl
inactive: [22] 113 % of control | [24] 98 % of control | [5] 102 % of control | [25] 95 % of control | [7] 87 % of control | [9] 92 % of control

COc1c(Cl)cc([N+](=O)[O-])cc1Cl
inactive: dose: 25.0 mg/kg/injection, schedule: Q01DX009 (ip), vehicle: gum acacia 100 % of control | dose: 50.0 mg/kg/injection, schedule: Q01DX009 (ip), vehicle: gum acacia 106 % of control

O=C(Nc1ccc(F)cc1)OCCOc1ccc(Cl)cc1Cl
inactive: [10] 105 % of control | [11] 110 % of control | [12] 109 % of control

CSC(Cl)=C(Cl)Cl
inactive: dose: 25.0 mg/kg/injection, schedule: Q04DX003 (ip), vehicle: saline with Tween-80 101 % of control | [23] 101 % of control | [17] 90 % of control | [5] 97 % of control

Oc1ccc(O)c(Cl)c1
inactive: [16] 107 % of control | dose: 50.0 mg/kg/injection, schedule: Q04DX002 (ip), vehicle: saline 106 % of control | [20] 94 % of control | [17] 107 % of control | dose: 100.0 mg/kg/injection, schedule: Q04DX002 (ip), vehicle: saline 92 % of control | [21] 94 % of control

CC(=O)NCCCOc1ccc(N)cc1
inactive: [17] 96 % of control | [18] 102 % of control | [19] 105 % of control

CC1=C(Br)C(=O)NC1=O
inactive: [5] 107 % of control | [7] 101 % of control | [9] 107 % of control

O=c1[nH]c2cc(Cl)c(Cl)cc2o1
inactive: dose: 19.0 mg/kg/injection, schedule: Q01DX Z (ip), vehicle: carboxymethylcellulose (CMC) 95 % of control | dose: 37.5 mg/kg/injection, schedule: Q01DX Z (ip), vehicle: carboxymethylcellulose (CMC) 95 % of control | dose: 75.0 mg/kg/injection, schedule: Q01DX Z (ip), vehicle: carboxymethylcellulose (CMC) 96 % of control | [10] 93 % of control | [13] 102 % of control | [11] 93 % of control | [14] 95 % of control | [15] 97 % of control

CCCCNC(=S)NCCCC
inactive: [10] 92 % of control | dose: 100.0 mg/kg/injection, schedule: Q04DX002 (ip), vehicle: Klucel (hydroxypropylcellulose) (HPC) 98 % of control | [11] 98 % of control | dose: 200.0 mg/kg/injection, schedule: Q04DX002 (ip), vehicle: Klucel (hydroxypropylcellulose) (HPC) 104 % of control
